Source: BindingDB's records for PubMed 1586393 (U. 109, 1992)

Molecular target: D(3) dopamine receptor (Homo sapiens, UniProt P35462)
Sequence (P35462 as listed by the source): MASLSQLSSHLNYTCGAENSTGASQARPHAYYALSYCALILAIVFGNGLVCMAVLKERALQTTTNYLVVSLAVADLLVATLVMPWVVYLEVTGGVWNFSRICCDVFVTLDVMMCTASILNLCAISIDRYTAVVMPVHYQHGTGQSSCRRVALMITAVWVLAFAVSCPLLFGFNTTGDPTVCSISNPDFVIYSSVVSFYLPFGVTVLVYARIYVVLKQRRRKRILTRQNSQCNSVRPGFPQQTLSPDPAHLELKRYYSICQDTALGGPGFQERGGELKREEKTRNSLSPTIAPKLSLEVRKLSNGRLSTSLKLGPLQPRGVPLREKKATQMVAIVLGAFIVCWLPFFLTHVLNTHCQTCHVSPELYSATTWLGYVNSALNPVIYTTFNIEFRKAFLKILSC

Row | Ki | SMILES
1 | 15 nM | NC(=O)C1(N2CCCCC2)CCN(CCCN2c3ccccc3CCc3ccccc32)CC1 [CAS_5942-95-0]
2 | 0.28 nM | CN(C)S(=O)(=O)c1ccc2c(c1)N(CCCN1CCC(CCO)CC1)c1ccccc1S2 [CAS_39860-99-6]
3 | 34 nM | Nc1nc2c(ncn2[C@@H]2O[C@H](COP(=O)(O)OP(=O)(O)NP(=O)(O)O)[C@@H](O)[C@H]2O)c(=O)[nH]1 [Guanylyl imidodiphosphate]
4 | 1.2 nM | CN1CCN(CCCN2c3ccccc3Sc3ccc(S(=O)(=O)N(C)C)cc32)CC1 [NSC_92178]
5 | 1.3 nM | CCS(=O)(=O)c1cc(C(=O)NCC2CCCN2CC2CC2)c(OC)cc1I (configuration not stated) [NSC_122245]

Row | SMILES | Ki
6 | CCCN[C@@H]1CCc2c(OC)cccc2[C@@H]1C [CAS_85379-09-5] | 139 nM
7 | CCCN(CCC)C1C=Cc2c(OC)cccc2C1C (configuration not stated) [CAS_5311190] | 11 nM
